{
  "source": "patent US20160073633A1",
  "about": "“CROP ENHANCEMENT” (SYNGENTA PARTICIPATIONS AG, priority 2013, published 2016)",
  "key": {"potato tubers [1]": {"system": "potato tubers", "assay": "Experiment 1.1: azoxystrobin sprayed on uncovered potato tubers, no cold stress, plant growth vs check", "format": "in vivo", "procedure": "A commercially available SC100 formulation of azoxystrobin was sprayed directly to uncovered potato tubers, which were sitting on soil (50% drench soil mixed with 50% sand), at two different rates: • 7.5 g/ha • 3.8 g/ha\n(§1) The spray volume was 200 l/ha.\n(§2) The check had no treatment of azoxystrobin.\n(§3) The trials were repeated in 6 troughs with 3 tubers each.\nVarieties tested were Allians, Belana, Marabel and Roberta. Each were tested as pre-germinated (i.e. treatment was applied when the potato tuber had 2-3 mm long sprouts) tubers and as non germinated tubers.\nThe temperature was about 17° C. during the day and about 15° C. during the night.\n(§4) No pest pressure present.\nPlant vitality was measured with the “Green Seeker” system."}, "potato tubers [2]": {"system": "potato tubers", "assay": "Experiment 1.2: azoxystrobin sprayed on uncovered pre-germinated potato tubers at about 10° C. (simulated cold stress), plant growth vs check", "format": "in vivo", "conditions": "3 g/ha; for % increased growth vs Check (visual plant growth): pre-germinated, 21 days after application", "procedure": "A commercially available SC100 formulation of azoxystrobin was sprayed directly to uncovered potato tubers, which were sitting on soil (50% drench soil mixed with 50% sand), at: • 3 g/ha\nas §1, §2, §3\nVarieties tested were Allians, Belana, Marabel and Roberta. Each were tested as pre-germinated (i.e. treatment was applied when the potato tuber had 2-3 mm long sprouts) tubers.\nThe temperature was held at about 10° C. during the day and night to simulate cold stress.\nas §4\nVisual Plant Growth was Measured 21 Days after Application: […]"}, "[3]": {"conditions": "21 and 34 days after application"}},
  "note": "Entries after “also recorded” stand apart in the source; their conditions may differ.",
  "data": [
    {"smiles": "CO/C=C(/C(=O)OC)c1ccccc1Oc1cc(Oc2ccccc2C#N)ncn1", "note": "[azoxystrobin]", "values": [
      {"measurement": "Shoot number in comparison with the check", "setting": "potato tubers [1]; 7.5 g/ha and 3.8 g/ha, spray 200 l/ha, about 17° C. day/15° C. night, Allians, Belana, Marabel, Roberta, pre-germinated and non germinated tubers", "value": "increased number of shoots"},
      {"measurement": "Shoot fresh mass in comparison with the check", "setting": "potato tubers [1]; 7.5 g/ha and 3.8 g/ha, spray 200 l/ha, about 17° C. day/15° C. night, all varieties", "value": "increased shoot fresh mass; also recorded: significantly increased"},
      {"measurement": "Plant vitality (Green Seeker) vs check", "setting": "potato tubers [1]; Allians and Roberta, pre-germinated tubers, about 17° C. day/15° C. night", "value": "better than check"},
      {"measurement": "Plant vitality (Green Seeker) in comparison with the check, FIG. 3", "setting": "potato tubers [1]; each trial, 7.5 g/ha and 3.8 g/ha", "value": "increased plant vitality"},
      {"measurement": "Plant vitality (Green Seeker) vs check", "setting": "potato tubers [1]; low rate treatment (3.8 g/ha), about 17° C. day/15° C. night", "value": "often showed a lower value"},
      {"measurement": "Number of shoots in comparison with the check", "setting": "potato tubers [2]; [3]", "value": "increased number of shoots"},
      {"measurement": "Shoot length in comparison with the check", "setting": "potato tubers [2]; [3]", "value": "increased shoot length"},
      {"measurement": "Visually more shoot than check", "setting": "potato tubers [2]; across varieties", "value": "up to 38%"},
      {"measurement": "Growth of treated tubers vs untreated check", "setting": "potato tubers [2]; all varieties", "value": "grew better than untreated check"},
      {"measurement": "% increased growth vs Check (visual plant growth)", "setting": "potato tubers [2]; variety Allians", "value": 38, "unit": "%"},
      {"measurement": "% increased growth vs Check (visual plant growth)", "setting": "potato tubers [2]; variety Belana", "value": 12, "unit": "%"},
      {"measurement": "% increased growth vs Check (visual plant growth)", "setting": "potato tubers [2]; variety Marabel", "value": 37, "unit": "%"},
      {"measurement": "% increased growth vs Check (visual plant growth)", "setting": "potato tubers [2]; variety Roberta", "value": 10, "unit": "%"}
    ]}
  ]
}
